From patent publication US20240059712A1, “BIFUNCTIONAL COMPOUNDS AND PHARMACEUTICAL USES THEREOF” (priority 2022, published 2024) come the findings set out here.

SMILES strings stand for the structures.

In one test the test system is Aspc-1 cells. Put plainly: Cell proliferation study (Cell Titer Glo, 72 hours). The class given is cell-based. As to conditions: Homo sapiens, ASPC1, read-out: IC50, inhibitory effect on cellular proliferation. As for the experimental part:
Aspc-1 (Cobioer, CBP60546) cells were grown in RPMI 1640 (Gibco, 61870127) supplemented with 10% fetal bovine serum (Gibco, 10099141), 1% penicillin-streptomycin (Gibco, 15070-063). Aspc-1 cells in exponential growth phase were seeded into 96-well plate (Corning, 3599) at density of 4×10^3/well. Cells were cultured overnight at 37° C. with 5% CO2. On the next day, cells were treated with compound at various concentrations for 72 hours in 37° C., 5% CO2 incubator (final DMSO concentration is 0.1%). After treatment, the cell plates were added 100 μL Cell Tier Glo (Promega, G7573) to every well and incubated at RT for 10 minutes. Cell growth status was measured with Cell Tier Glo (Promega, G7573) following manufacturer's directions. The inhibition curve was obtained with GraphPad 7.0 software using four-parameter equation.
(Cellular ATP, detected with luciferase, serves as a proxy for viable cell number.)

For the next test, the target named is T1, KRAS^G12D protein (Homo sapiens, UniProt P01116, G12D).
T1 construct: host or cells: Aspc-1 (AsPC-1) cells
T1 sequence (P01116 1-188 isoform P01116-2 G12D): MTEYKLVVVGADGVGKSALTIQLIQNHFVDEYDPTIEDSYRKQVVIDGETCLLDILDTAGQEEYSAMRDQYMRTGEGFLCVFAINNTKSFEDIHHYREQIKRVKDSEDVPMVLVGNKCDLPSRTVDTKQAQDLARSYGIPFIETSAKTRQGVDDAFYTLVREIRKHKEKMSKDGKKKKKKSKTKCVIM
Put plainly: Protein degradation study (western blot) in Aspc-1 cells. The class given is cell-based. The note with it: for inhibition at 0.005 µM / inhibition at 0.05 µM / inhibition at 0.001 µM: ASPC1, 24 h, 24 hours, read-out: Rate of degradation; for inhibition at 0.005 µM: Aspc-1 cells treated with 0.005 μM compound; for inhibition at 0.05 µM: Aspc-1 cells treated with 50 nM compound; for DC50: Aspc-1 cells, half-maximum degradation concentration, read-out: DC50 of compounds induced Ras G12D protein degradation; for inhibition at 0.001 µM: Aspc-1 cells treated with 1 nM compound. As for the experimental part: Aspc-1 (Cobioer, CBP60546) cells in exponential growth phase were inoculated on a 6-well cell culture plate (Corning, 3516) at density of 1E6/well; and cells in the plate were cultured in 37° C. incubator containing 5%-carbon dioxide. The next day, testing compounds were dissolved in DMSO (Sigma, RNBF5902) for the preparation of a 10-mM concentration stock solution. The stock solution was diluted with complete medium (RPMI-1640 supplemented with 10% fetal bovine serum, 1% penicillin-streptomycin), yielding working solutions of various concentrations. The plate, after the addition of compounds, was placed in a 5% carbon dioxide incubator, and incubated at 37° C. for 24 hours (final DMSO concentration was 0.1%). The plate was then removed from the incubator, and the cells were washed twice with precooled PBS (Gibco, 14190250), followed by addition of 80-μL RIPA lysis buffer (containing protease inhibitor (Invitrogen™, AM2696)) to each well. The adherent cells were scraped off with a cell scraper, and the cell lysate was transferred to a 1.5-mL centrifuge tube followed with a 30-minute incubation on ice. The lysate was then clarified with centrifugation at 14000 rpm for 10 min at 4° C. The supernatant was transferred into a new 1.5-mL centrifuge tube, and protein concentration was measured with BCA protein detection kit (Thermo Fisher, 23225). G12D protein level was assessed by western blot.
A mixture of cell lysate (40 μL) and loading buffer (10 μL, 5×SDS (Beyotime, P0015L)) was denatured in a water-bath at 95° C. for 10 min. The denatured protein sample, at 30 μL/well, was loaded into corresponding well of 4-20% Bis-Tris gel (Kingsley, M00656). Protein samples were initially electrophoresed at 80 V for 30 minutes, followed by 120 V for 40 minutes, until the bromophenol blue strip ran to an appropriate position. After electrophoresis, iBlot2 (Life Technologies, IB21001) was used to transfer the separated samples onto PVDF film. The PVDF membrane was washed with double-distilled water and then blocked in TBST (Thermo Scientific, 28360) buffer containing 5% non-fat milk, for 2 hours. Blocked membrane was rinsed with tris-buffered saline tween-20 (Thermo Scientific, 28360, TBST) three times, 10 minutes each. Membrane was then incubated with 1:1000 diluted KRAS primary antibody (CST, cat #14429S) overnight at 4° C. Membrane was rinsed in a way described previously followed by 1 hour incubation of secondary antibody at room temperature. After washing the film for three times with TBST, ECL color developing solution was applied, and image was captured with Biorad Chemi Doc gel imager. The band gray value was quantified (Image Lab), and protein degradation level was calculated according to the following formula:
Level of RAS protein expression=(RAS-compound/GAPDH)/(RAS-DMSO/GAPDH)
Level of degradation (%)=(1−Rate of RAS protein expression)×100
Symbols of −, +, ++, +++ indicate that the degradation level of Ras protein induced by testing compounds are […], 11 to 30%, 31 to 60% and greater than 60%, respectively.
Half-maximum degradation concentrations (DC50s) of testing compounds were calculated using GraphPad Prism and their values were shown in Table 6. Symbols of […] represent DC50s equal or less than 10 nM, 11-50 nM, 51-100 nM, and 101-200 nM, respectively.

The term DC50 denotes the concentration giving 50% degradation. Consider `C#Cc1c(F)ccc2cc(O)cc(-c3ncc4c(N5CC6CCC(C5)N6)nc(OCC5(CN6CCC7(CCC(C(=O)N8CCC(c9ccc%10c(C%11CCC(=O)NC%11=O)nn(C)c%10c9)CC8)CC7)CC6)CC5)nc4c3F)c12` (stereo not drawn) [Compound 24a], for which, in the test with Aspc-1 cells, the IC50 is < 100 nM. Further, on KRAS^G12D protein, the inhibition at 0.005 µM is > 60%, the inhibition at 0.05 µM was 31 to 60% and the DC50 was < 10 nM.
Consider `C#Cc1c(F)ccc2cc(O)cc(-c3ncc4c(N5CC6CCC(C5)N6)nc(OCC5(CN6CCC(N7CC(CN8CCC(c9ccc%10c(C%11CCC(=O)NC%11=O)nn(C)c%10c9)CC8)C7)CC6)CC5)nc4c3F)c12` (stereo not drawn) [Compound 30a], for which the IC50 in the test on Aspc-1 cells was < 100 nM. For the same compound, at KRAS^G12D protein, the inhibition at 0.005 µM is > 60%, the inhibition at 0.05 µM was > 60% and the DC50 was < 10 nM.
Consider `C#Cc1c(F)ccc2cc(O)cc(-c3ncc4c(N5CC6CCC(C5)N6)nc(OCC5(CN6CCC7(CC6)CC(N6CCC(c8cc9c(cc8F)c(N8CCC(=O)NC8=O)nn9C)C(F)(F)C6)C7)CC5)nc4c3F)c12` (stereo not drawn) [Compound 37a], for which the IC50 with Aspc-1 cells was < 100 nM. The DC50 at KRAS^G12D protein was < 10 nM.
On to `Cn1nc(C2CCC(=O)NC2=O)c2ccc(C3CCN(C4CC5(CCN(CC6(COc7nc(N8CC9CCC(C8)N9)c8cnc(-c9cc(N)cc(Cl)c9C(F)(F)F)c(F)c8n7)CC6)CC5)C4)CC3)cc21` (stereo not drawn) [Compound 17a], for which the IC50 in the test on Aspc-1 cells was < 100 nM. Besides, at KRAS^G12D protein, the inhibition at 0.005 µM is > 60%, the inhibition at 0.05 µM is > 60% and the DC50 is < 10 nM.
Regarding `Cn1nc(N2CCC(=O)NC2=O)c2cc(F)c(C3CCN(C4CC5(CCN(CC6(COc7nc(N8CC9CCC(C8)N9)c8cc(Cl)c(-c9ccc(F)c%10sc(N)c(C#N)c9%10)c(F)c8n7)CC6)CC5)C4)CC3)cc21` [Compound 40a], the IC50 in the test with Aspc-1 cells was < 100 nM. Also, at KRAS^G12D protein, the inhibition at 0.005 µM is > 60% and the DC50 was < 10 nM.
Turning to `C#Cc1c(F)ccc2cccc(-c3ncc4c(N5CC6CCC(C5)N6)nc(OCC5(CN6CCC7(CC6)CC(N6CCC(c8ccc9c(C%10CCC(=O)NC%10=O)nn(C)c9c8)CC6)C7)CC5)nc4c3F)c12` (stereo not drawn) [Compound 16a], the IC50 with Aspc-1 cells lay within 101 to 1000 nM. In addition, at KRAS^G12D protein, the inhibition at 0.005 µM is > 60% and the inhibition at 0.05 µM was > 60%.
In the case of `C#Cc1c(F)ccc2cc(O)cc(-c3ncc4c(N5CC6CCC(C5)N6)nc(OCC5(CN6CCC7(CC6)CC(C(=O)N6CCC(c8ccc9c(C%10CCC(=O)NC%10=O)nn(C)c9c8)CC6)C7)CC5)nc4c3F)c12` (stereo not drawn) [Compound 28a], the IC50 in the test on Aspc-1 cells was < 100 nM. In addition, on KRAS^G12D protein, the inhibition at 0.005 µM was > 60%, the inhibition at 0.05 µM was > 60% and the DC50 was < 10 nM.
In the case of `Nc1cc(Cl)c(C(F)(F)F)c(-c2ncc3c(N4CC5CCC(C4)N5)nc(OCC4(CN5CCC6(CC5)CC(N5CCC(c7ccc8c9c(cccc79)C(=O)N8C7CCC(=O)NC7=O)CC5)C6)CC4)nc3c2F)c1` (stereo not drawn) [Compound 13a], the IC50 in the test with Aspc-1 cells was < 100 nM. Besides, on KRAS^G12D protein, the inhibition at 0.001 µM was > 60%, the inhibition at 0.005 µM is > 60%, the inhibition at 0.05 µM is > 60% and the DC50 was < 10 nM.
Regarding `C#Cc1c(F)ccc2cc(O)cc(-c3ncc4c(N5CC6CCC(C5)N6)nc(OCC5(CN6CCC7(CC6)CC(N6CCC(c8cc9c(cc8F)c(N8CCC(=O)NC8=O)nn9C)CC6)C7)CC5)nc4c3F)c12` [Compound 2a], the IC50 with Aspc-1 cells was < 100 nM. Besides, on KRAS^G12D protein, the inhibition at 0.005 µM was > 60%, the inhibition at 0.05 µM is > 60% and the DC50 is < 10 nM.
For the compound `C#Cc1c(F)ccc2cc(O)cc(-c3ccc4c(N5CC6CCC(C5)N6)nc(OCC5(CN6CCC7(CC6)CC(N6CCC(c8ccc9c(C%10CCC(=O)NC%10=O)nn(C)c9c8)CC6)C7)CC5)nc4c3F)c12` (stereo not drawn) [Compound 23a], the IC50 in the test on Aspc-1 cells is < 100 nM. On KRAS^G12D protein, the inhibition at 0.005 µM was > 60%, the inhibition at 0.05 µM is > 60% and the DC50 was < 10 nM.
In the case of `C#Cc1c(F)ccc2cc(O)cc(-c3ncc4c(N5CC6CCC(C5)N6)nc(OCC5(CN6CCC7(CCC(N8CCC(c9ccc%10c(C%11CCC(=O)NC%11=O)nn(C)c%10c9)CC8)CC7)CC6)CC5)nc4c3F)c12` (stereo not drawn) [Compound 33a], the IC50 in the test with Aspc-1 cells is < 100 nM. At KRAS^G12D protein, the inhibition at 0.005 µM is > 60%, the inhibition at 0.05 µM was > 60% and the DC50 is < 10 nM.
As to `C#Cc1c(F)ccc2cc(O)cc(-c3ncc4c(N5CC6CCC(C5)N6)nc(OCC5(CN6CC7(CCC(CN8CCC(c9ccc%10c(C%11CCC(=O)NC%11=O)nn(C)c%10c9)CC8)CC7)C6)CC5)nc4c3F)c12` (stereo not drawn) [Compound 32a], the IC50 with Aspc-1 cells was < 100 nM. At KRAS^G12D protein, the inhibition at 0.005 µM is > 60%, the inhibition at 0.05 µM was in the range of 31 to 60% and the DC50 is < 10 nM.
For the compound `C#Cc1c(F)ccc2cc(O)cc(-c3ncc4c(N5CC6CCC(C5)N6)nc(OCC5(CN6CC7(CCC(N8CCC(c9ccc%10c(C%11CCC(=O)NC%11=O)nn(C)c%10c9)CC8)CC7)C6)CC5)nc4c3F)c12` (stereo not drawn) [Compound 31a], in the test on Aspc-1 cells, the IC50 was < 100 nM. Besides, on KRAS^G12D protein, the inhibition at 0.005 µM was > 60%, the inhibition at 0.05 µM was > 60% and the DC50 is < 10 nM.
Consider `C#Cc1c(F)ccc2cc(O)cc(-c3ncc4c(N5CC6CCC(C5)N6)nc(OCC5(CN6CCC7(CCC(CN8CCC(c9ccc%10c(C%11CCC(=O)NC%11=O)nn(C)c%10c9)CC8)CC7)CC6)CC5)nc4c3F)c12` (stereo not drawn) [Compound 26a], for which the IC50 in the test on Aspc-1 cells was < 100 nM. Besides, on KRAS^G12D protein, the inhibition at 0.005 µM was > 60%, the inhibition at 0.05 µM was 11 to 30% and the DC50 was < 10 nM.
For the compound `C#Cc1c(F)ccc2cccc(-c3ncc4c(N5CC6CCC(C5)N6)nc(OCC5(CN6CCC7(CC6)CC(N6CCC(c8ccc9c%10c(cccc8%10)C(=O)N9C8CCC(=O)NC8=O)CC6)C7)CC5)nc4c3F)c12` (stereo not drawn) [Compound 14a], in the test with Aspc-1 cells, the IC50 was in the range of 101 to 1000 nM. Moreover, on KRAS^G12D protein, the inhibition at 0.001 µM is > 60%, the inhibition at 0.005 µM is > 60%, the inhibition at 0.05 µM was > 60% and the DC50 was < 10 nM.
In the case of `C#Cc1c(F)ccc2cc(O)cc(-c3ncc4c(N5CC6CCC(C5)N6)nc(OCC5(CN6CCC7(CC6)CC(N6CCC(c8ccc(NC9CCC(=O)NC9=O)cc8F)CC6)C7)CC5)nc4c3F)c12` (stereo not drawn) [Compound 12a], the IC50 in the test with Aspc-1 cells was < 100 nM. In addition, at KRAS^G12D protein, the inhibition at 0.001 µM is > 60%, the inhibition at 0.005 µM was > 60%, the inhibition at 0.05 µM was > 60% and the DC50 is < 10 nM.
For the compound `C#Cc1c(F)ccc2cc(O)cc(-c3ncc4c(N5CC6CCC(C5)N6)nc(OCC5(CN6CCC7(CC6)CC(CN6CCC(c8ccc9c(C%10CCC(=O)NC%10=O)nn(C)c9c8)CC6)C7)CC5)nc4c3F)c12` (stereo not drawn) [Compound 29a], the IC50 with Aspc-1 cells is < 100 nM. Further, at KRAS^G12D protein, the inhibition at 0.005 µM is > 60%, the inhibition at 0.05 µM lay within 11 to 30% and the DC50 is < 10 nM.
In the case of `C#Cc1c(F)ccc2cc(O)cc(-c3ncc4c(N5CC6CCC(C5)N6)nc(OCC5(CN6CCC(N7CC(C(=O)N8CCC(c9ccc%10c(C%11CCC(=O)NC%11=O)nn(C)c%10c9)CC8)C7)CC6)CC5)nc4c3F)c12` (stereo not drawn) [Compound 35a], at KRAS^G12D protein, the inhibition at 0.005 µM fell in the range of 31 to 60% and the inhibition at 0.05 µM is > 60%.
